Assay results as given in article PMC12876990, “Targeting secreted PLA2 interactions with EGFR and vimentin to arrest prostate tumour growth” (Cell Death & Disease, 2025).
Square brackets hold non-standard residues; d marks the D form. Peptide text beside a SMILES is read from it. 2Nal = N[C@@H](Cc1ccc2ccccc2c1)C(=O)O

Key:
Format in all cases: in vivo, male Sprague Dawley rats
[1] = 28-day oral toxicity study: body weights
Method: 3.6. Procedure for test item administration
(§1) intragastric cannula attached to a 3 mL syringe.
3.7. Observation of animals
(§2) groups: Day 29; recovery groups: Day 43).
(Appendix C Study Data Spreadsheets).
(§3) report (Appendix C Study Data Spreadsheets). […]

[2] = 28-day oral toxicity study: functional observation; settings: for Grip strength (mean) Forelimb / Grip strength (mean) Hind limb: week 4
Method: 3.6. Procedure for test item administration […]
as §1
3.7. Observation of animals […]
as §2
(§4) (Appendix C Study Data Spreadsheets). […]
as §3
3.7.5. Functional observation […]
s upine drop, grip strength test. […]

[3] = 28-day oral toxicity study: haematology analysis; settings: for MCHC: calculated value
Method: Blood analyse s (haematology and biochemistry) w ere performed on all animals on Day 29 (main groups) or Day 43 (recovery groups). Approximately 4 mL of blood was taken from ea ch animal by cardiac puncture using a 10 mL syringe and 21-gauge needle. The procedure involved anaesthetising by intraperitoneal injection of sodi um pentobarbitone using a 2 mL sterile plastic syringe attached to a 26-gauge needle (Terumo).
For each blood sampling, the blood was divided into two aliquots: (i) one was placed into a tube containing EDTA (for whole blood and EDTA plasma), (ii) one aliquot into a Li-heparin tube.
3.9.1. Haematology analysis
The following parameters were analysed: Red blood cell (RBC), haemoglobin (Hb), haematocrit (Hct), mean corpuscular volume (MCV), mean corpuscular haemoglobin (MCH), mean corpuscular haemoglobin concentration (MCHC), platelet count (PLT), mean platelet volume (MPV), white blood count (WBC), neutrophil (Neut), lymphocyte (Lymph), monocytes (Mono), eosinophil (Eos), basophil (Baso).
Results and methods of analysis were attached in an appendix to the report (Appendix D Haematology and Biochemistry). Blood smear s for cell morphology were prepared. By convention only abnormal findings on smear evaluation were reported. […]
Haematology and Biochemistry). […]
as §4

[4] = 28-day oral toxicity study: urinalysis
Description: Haematology and Biochemistry).
Urine was collected at the end of the study (on Days 29 and 43 for main and recovery groups, respectively) by placing a urine collection tube at the opening of the urethra and any urine expressed by the animal wa s collected. If no urine came out, pressure was gently applied on the bladder area of the abdomen.
Urine was also collected by bladder puncture at the time of death to maximise the volume collected. The animal was placed in lateral recumbency and the abdominal cavity opened. A needle attached to the syringe w as in serted int o the bladder and urine withdrawn with the plunger. The urine sample was expelled from the syringe into the collection tube.
The urine samples were an alysed, individual re su lts are pres ented a s an appendix to the report (Appendix C Study Data Spreadsheets). […]

[5] = Day 43, Gr 5 recovery, 20 mg/kg

CC(C)C[C@@H]1NC(=O)[C@H](Cc2ccc3ccccc3c2)NC(=O)[C@H](CCCNC(=N)N)NC(=O)[C@H](Cc2ccc3ccccc3c2)NC(=O)[C@H](CO)NC1=O [c2, cyclo-((2-Nal)-Leu-Ser-(2-Nal)-Arg)] (cyclo([2Nal]LS[2Nal]R))
percentage body weight gain ([1]; 4-week observation period, Gr 2, 1 mg/kg): 55.4 ± 8.84%
body weight gains vs vehicle control ([1]; 28-day and 42-day experimental period): comparable
Mean body weight ([1]; Day 1, Gr 2, 1 mg/kg): 261 ± 14.0 g
Mean body weight ([1]; Day 1, Grs 3 & 5, 20 mg/kg): 257 ± 11.3 g
Mean body weight ([1]; Day 8, Gr 2, 1 mg/kg): 312 ± 15.3 g
Mean body weight ([1]; Day 8, Grs 3 & 5, 20 mg/kg): 312 ± 14.1 g
Mean body weight ([1]; Day 15, Gr 2, 1 mg/kg): 356 ± 22.3 g
Mean body weight ([1]; Day 15, Grs 3 & 5, 20 mg/kg): 354 ± 20.8 g
Mean body weight ([1]; Day 22, Gr 2, 1 mg/kg): 387 ± 24.9 g
Mean body weight ([1]; Day 22, Grs 3 & 5, 20 mg/kg): 392 ± 24.5 g
Mean body weight ([1]; Day 28, Gr 2, 1 mg/kg): 406 ± 31.0 g
Mean body weight ([1]; Day 28, Grs 3 & 5, 20 mg/kg): 414 ± 27.3 g
Mean body weight ([1]; Day 29 after overnight fasting, Gr 2, 1 mg/kg): 395 ± 28.0 g
Mean body weight ([1]; Day 29 after overnight fasting, Gr 3, 20 mg/kg): 395 ± 31.5 g
Mean body weight ([1]; Day 36, Gr 5 recovery, 20 mg/kg): 458 ± 12.0 g
Mean body weight ([1]; Day 42, Gr 5 recovery, 20 mg/kg): 480 ± 11.6 g
Mean body weight ([1]; Day 43 after overnight fasting, Gr 5 recovery, 20 mg/kg): 460 ± 12.3 g
body weight gain ([1]; Week 1, Gr 2, 1 mg/kg): 19.6 ± 2.49%
functional observations tests ([2]; Week 4): no effect
Grip strength (mean) Forelimb ([2]; Gr 2, 1 mg/kg): 487 ± 33.0
Grip strength (mean) Hind limb ([2]; Gr 2, 1 mg/kg): 59 ± 3.2
Grip strength (mean) Forelimb ([2]; Gr 3, 20 mg/kg): 458 ± 39.9
Grip strength (mean) Hind limb ([2]; Gr 3, 20 mg/kg): 57 ± 2.5
Grip strength (mean) Forelimb ([2]; Gr 5, 20 mg/kg): 456 ± 47.2
Grip strength (mean) Hind limb ([2]; Gr 5, 20 mg/kg): 61 ± 3.8
Hb ([3]; Day 29, Gr 2, 1 mg/kg): 157 ± 4.7 g/L
PLT ([3]; Day 29, Gr 2, 1 mg/kg): 1184 ± 127.7 x 109 / L
MCHC ([3]; Day 29, Gr 2, 1 mg/kg): 344 ± 5.1 g/L
Hb ([3]; Day 29, Gr 3, 20 mg/kg): 159 ± 3.0 g/L
PLT ([3]; Day 29, Gr 3, 20 mg/kg): 1191 ± 93.8 x 109 / L
MCHC ([3]; Day 29, Gr 3, 20 mg/kg): 351 ± 4.0 g/L
blood haematology ([3]; Day 29 and Day 43): no obvious test item related effect
Baso [3, 5]: 0 L⁻¹
Hb [3, 5]: 154 ± 1.8 g/L
PLT [3, 5]: 1182 ± 143.7 x 109 / L
MCHC [3, 5]: 353 ± 4.2 g/L
Urine bilirubin: animals Negative ([4]; Day 29, Gr 2, 1 mg/kg): 8/8
Urine blood: animals Negative ([4]; Day 29, Gr 2, 1 mg/kg): 8/8
Urine glucose: animals Negative ([4]; Day 29, Gr 2, 1 mg/kg): 8/8
Urine ketone: animals Small ([4]; Day 29, Gr 2, 1 mg/kg): 1/8
Urine ketone: animals Trace ([4]; Day 29, Gr 2, 1 mg/kg): 5/8
Urine leucocytes: animals Negative ([4]; Day 29, Gr 2, 1 mg/kg): 8/8
Urine nitrite: animals Negative ([4]; Day 29, Gr 2, 1 mg/kg): 8/8
Urine protein: animals 1+ ([4]; Day 29, Gr 2, 1 mg/kg): 4/8
Urine protein: animals 2+ ([4]; Day 29, Gr 2, 1 mg/kg): 2/8
Urine protein: animals Trace ([4]; Day 29, Gr 2, 1 mg/kg): 2/8
Urobilinogen: animals Normal ([4]; Day 29, Gr 2, 1 mg/kg): 8/8
Urine bilirubin: animals Negative ([4]; Day 29, Gr 3, 20 mg/kg): 9/9
Urine blood: animals Negative ([4]; Day 29, Gr 3, 20 mg/kg): 9/9
Urine glucose: animals Negative ([4]; Day 29, Gr 3, 20 mg/kg): 9/9
Urine ketone: animals Negative ([4]; Day 29, Gr 3, 20 mg/kg): 1/9
Urine ketone: animals Small ([4]; Day 29, Gr 3, 20 mg/kg): 4/9
Urine ketone: animals Trace ([4]; Day 29, Gr 3, 20 mg/kg): 4/9
Urine leucocytes: animals Negative ([4]; Day 29, Gr 3, 20 mg/kg): 9/9
Urine nitrite: animals Negative ([4]; Day 29, Gr 3, 20 mg/kg): 9/9
Urine protein: animals 1+ ([4]; Day 29, Gr 3, 20 mg/kg): 7/9
Urine protein: animals 2+ ([4]; Day 29, Gr 3, 20 mg/kg): 2/9
Urobilinogen: animals Normal ([4]; Day 29, Gr 3, 20 mg/kg): 9/9
urine parameters ([4]; Day 29 and Day 43): no obvious effects
Urine bilirubin: animals Negative [4, 5]: 5/5
Urine blood: animals Negative [4, 5]: 3/5
Urine blood: animals Small [4, 5]: 1/5
Urine blood: animals Trace [4, 5]: 1/5
Urine glucose: animals Negative [4, 5]: 5/5
Urine ketone: animals Negative [4, 5]: 2/5
Urine ketone: animals Trace [4, 5]: 3/5
Urine leucocytes: animals Negative [4, 5]: 5/5
Urine nitrite: animals Negative [4, 5]: 5/5
Urine protein: animals 1+ [4, 5]: 2/5
Urine protein: animals 2+ [4, 5]: 1/5
Urine protein: animals Negative [4, 5]: 2/5
Urobilinogen: animals Normal [4, 5]: 5/5
